{"source": "patent US10821115B2", "about": "“Compounds that inhibit Mcl-1 protein” (priority 2017, dated 2020)", "key": {"[1]": {"target": "recombinant human Mcl-1 (residues 171-327) / Bim interaction (Homo sapiens (Human), UniProt Q07820)", "sequence (Q07820 171-327)": "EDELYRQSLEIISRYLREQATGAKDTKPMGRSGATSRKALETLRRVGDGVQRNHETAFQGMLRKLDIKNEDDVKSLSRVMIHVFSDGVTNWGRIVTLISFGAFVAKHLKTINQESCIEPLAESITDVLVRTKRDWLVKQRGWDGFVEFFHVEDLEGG", "assay": "biochemical", "assay_type": "binding", "conditions": "read-out: Mcl-1 HTRF IC50"}, "[2]": {"test_system": "human multiple myeloma cell line, OPM-2", "assay": "Cell viability assay (OPM-2 10 FBS), CellTiter-Glo", "assay_type": "cell-based", "how_it_was_run": "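OPM-2 cells at 3000 cells/well in RPMI 1640 with 10% FBS were exposed to serially diluted compounds for 16 h at 37 °C, 5% CO2.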"}, "[3]": {"conditions": "0.1 nM Mcl-1(171-327), 0.05 nM biotin-Bim (51-76)"}, "[4]": {"conditions": "Homo sapiens, OPM-2, 16 h, read-out: OPM-2 10% FBS IC50 IP, OPM-2 cells, 10% FBS, 16 h incubation"}, "[5]": {"conditions": "TR-FRET, Mcl-1(171-327) / biotin-Bim (51-76)"}, "[6]": {"conditions": "read-out: OPM-2 10% FBS IC50 IP, OPM-2 cells, 10% FBS, 16 h, CellTiter-Glo"}, "[7]": {"conditions": "Homo sapiens, OPM-2, 16 h, read-out: OPM-2 10% FBS IC50 IP, OPM-2 cells, 10% FBS, 16 h, CellTiter-Glo"}}, "note": "Where two headings read alike, the source gives them in different places."}
{"smiles": "COCC[C@@H]1[C@@H](C)C/C=C/[C@@](CN2CCN(C(C)(C)C)CC2)(OC)[C@@H]2CC[C@H]2CN2C[C@@]3(CCCc4cc(Cl)ccc43)COc3ccc(cc32)C(=O)NS1(=O)=O", "note": "[Example 189, (1S,3′R,6′R,7′R,8′E,11′S,12′R)-7′-((4-tert-butyl-1-piperazinyl)methyl)-6-chloro-7′-methoxy-12′-(2-methoxyethyl)-11′-methyl-3,4-dihydro-2H,15′H-spiro[naphthalene-1,22′-[20]oxa[13]thia[1,14]diazatetracyclo [14.7.2.0~3,6~.0~19,24~]pentacosa[8,16,18,24]tetraen]-15′-one 13′,13′-dioxide]", "values": [{"measurement": "IC50", "setting": "[1]; [3]", "value": 0.084, "unit": "nM"}, {"measurement": "IC50", "setting": "[2]; [4]", "value": 33, "unit": "nM"}]}
{"smiles": "C[C@@H]1[C@@H](C)CCC[C@@](O)(Cc2ccncn2)[C@@H]2CC[C@H]2CN2C[C@@]3(CCCc4cc(Cl)ccc43)COc3ccc(cc32)C(=O)NS1(=O)=O", "note": "[Example 100114, (1S,3′R,6′R,7′R,11′S,12′R)-6-chloro-7′-hydroxy-11′,12′-dimethyl-7′-(4-pyrimidinylmethyl)-3,4-dihydro-2H,15′H-spiro[naphthalene-1,22′-[20]oxa[13]thia[1,14]diazatetracyclo [14.7.2.0~3,6~.0~19,24~]pentacosa[16,18,24]trien]-15′-one 13′,13′-dioxide]", "values": [{"measurement": "IC50", "setting": "[1]; [5]", "value": 1.05, "unit": "nM"}, {"measurement": "IC50", "setting": "[2]; [6]", "value": 491, "unit": "nM"}]}
{"smiles": "CO[C@@]1(CN2CCN(CC3COC3)CC2)/C=C/C[C@H](C)[C@@H](C)S(=O)(=O)NC(=O)c2ccc3c(c2)N(C[C@@H]2CC[C@H]21)C[C@@]1(CCCc2cc(Cl)ccc21)CO3", "note": "[Example 313, (1S,3′R,6′R,7′S,8′E,11′S,12′R)-6-chloro-7′-methoxy-11′,12′-dimethyl-7′-((4-(3-oxetanylmethyl)-1-piperazinyl)methyl)-3,4-dihydro-2H,15′H-spiro[naphthalene-1,22′-[20]oxa[13]thia[1,14]diazatetracyclo [14.7.2.0~3,6~.0~19,24~]pentacosa[8,16,18,24]tetraen]-15′-one 13′,13′-dioxide]", "values": [{"measurement": "IC50", "setting": "[1]; [3]", "value": 0.225, "unit": "nM"}, {"measurement": "IC50", "setting": "[2]; [4]", "value": 131, "unit": "nM"}]}
{"smiles": "C[C@@H]1[C@@H](C)CCCC(CN2CCOCC2)(CN2CCOCC2)[C@@H]2CC[C@H]2CN2C[C@@]3(CCCc4cc(Cl)ccc43)COc3ccc(cc32)C(=O)NS1(=O)=O", "note": "[Example 100452, (1S,3′R,6′R,11′S,12′R)-6-chloro-11′,12′-dimethyl-7′,7′-bis(4-morpholinylmethyl)-3,4-dihydro-2H,15′H-spiro[naphthalene-1,22′-[20]oxa[13]thia[1,14]diazatetracyclo [14.7.2.0~3,6~.0~19,24~]pentacosa[16,18,24]trien]-15′-one 13′,13′-dioxide]", "values": [{"measurement": "IC50", "setting": "[1]; [5]", "value": 0.077, "unit": "nM"}, {"measurement": "IC50", "setting": "[2]; [7]", "value": 157, "unit": "nM"}]}
{"smiles": "CO[C@@]1(CN2CCN(Cc3ncccn3)CC2)/C=C/C[C@H](C)[C@@H](C)S(=O)(=O)NC(=O)c2ccc3c(c2)N(C[C@@H]2CC[C@H]21)C[C@@]1(CCCc2cc(Cl)ccc21)CO3", "note": "[Example 338, (1S,3′R,6′R,7′S,8′E,11′S,12′R)-6-chloro-7′-methoxy-11′,12′-dimethyl-7′-((4-(2-pyrimidinylmethyl)-1-piperazinyl)methyl)-3,4-dihydro-2H,15′H-spiro[naphthalene-1,22′-[20]oxa[13]thia[1,14]diazatetracyclo [14.7.2.0~3,6~.0~19,24~]pentacosa[8,16,18,24]tetraen]-15′-one 13′,13′-dioxide]", "values": [{"measurement": "IC50", "setting": "[1]; [3]", "value": 0.1, "unit": "nM"}, {"measurement": "IC50", "setting": "[2]; [4]", "value": 57, "unit": "nM"}]}
{"smiles": "COCC[C@@H]1[C@@H](C)C/C=C/[C@@](CN2CCN(C(C)C)CC2)(OC)[C@@H]2CC[C@H]2CN2C[C@@]3(CCCc4cc(Cl)ccc43)COc3ccc(cc32)C(=O)NS1(=O)=O", "note": "[Example 188, (1S,3′R,6′R,7′R,8′E,11′S,12′R)-6-chloro-7′-methoxy-12′-(2-methoxyethyl)-11′-methyl-7′-((4-(1-methylethyl)-1-piperazinyl)methyl)-3,4-dihydro-2H,15′H-spiro[naphthalene-1,22′-[20]oxa[13]thia[1,14]diazatetracyclo [14.7.2.0~3,6~.0~19,24~]pentacosa[8,16,18,24]tetraen]-15′-one 13′,13′-dioxide]", "values": [{"measurement": "IC50", "setting": "[1]; [3]", "value": 0.084, "unit": "nM"}, {"measurement": "IC50", "setting": "[2]; [4]", "value": 38, "unit": "nM"}]}
{"smiles": "CC(=O)N[C@@]1(CN2CCOCC2)CCC[C@H](C)[C@@H](C)S(=O)(=O)NC(=O)c2ccc3c(c2)N(C[C@@H]2CC[C@H]21)C[C@@]1(CCCc2cc(Cl)ccc21)CO3", "note": "[Example 100272, N-((1S,3′R,6′R,7′S,11′S,12′R)-6-chloro-11′,12′-dimethyl-7′-(4-morpholinylmethyl)-13′,13′-dioxido-15′-oxo-3,4-dihydro-2H-spiro[naphthalene-1,22′-[20]oxa[13]thia[1,14]diazatetracyclo [14.7.2.0~3,6~.0~19,24~]pentacosa[16,18,24]trien]-7′-yl)acetamide]", "values": [{"measurement": "IC50", "setting": "[1]; [5]", "value": 0.401, "unit": "nM"}, {"measurement": "IC50", "setting": "[2]; [7]", "value": 349, "unit": "nM"}]}
{"smiles": "C[C@@H]1[C@@H](C)C/C=C/[C@@](O)(CCCO)[C@@H]2CC[C@H]2CN2C[C@@]3(CCCc4cc(Cl)ccc43)COc3ccc(cc32)C(=O)NS1(=O)=O", "note": "[Example 100148, (1S,3′R,6′R,7′S,8′E,11′S,12′R)-6-chloro-7′-hydroxy-7′-(3-hydroxypropyl)-11′,12′-dimethyl-3,4-dihydro-2H,15′H-spiro[naphthalene-1,22′-[20]oxa[13]thia[1,14]diazatetracyclo [14.7.2.0~3,6~.0~19,24~]pentacosa[8,16,18,24]tetraen]-15′-one 13′,13′-dioxide]", "values": [{"measurement": "IC50", "setting": "[1]; [5]", "value": 0.113, "unit": "nM"}, {"measurement": "IC50", "setting": "[2]; [6]", "value": 239, "unit": "nM"}]}
{"smiles": "CO[C@@]1(CCN2CCN3CCOC[C@@H]3C2)/C=C/C[C@H](C)[C@@H](C)S(=O)(=O)NC(=O)c2ccc3c(c2)N(C[C@@H]2CC[C@H]21)C[C@@]1(CCCc2cc(Cl)ccc21)CO3", "note": "[Example 100429, (1S,3′R,6′R,7′S,8′E,11′S,12′R)-6-chloro-7′-(2-((9aS)-hexahydropyrazino[2,1-c][1,4]oxazin-8(1H)-yl)ethyl)-7′-methoxy-11′,12′-dimethyl-3,4-dihydro-2H,15′H-spiro[naphthalene-1,22′-[20]oxa[13]thia[1,14]diazatetracyclo [14.7.2.0~3,6~.0~19,24~]pentacosa[8,16,18,24]tetraen]-15′-one 13′,13′-dioxide]", "values": [{"measurement": "IC50", "setting": "[1]; [5]", "value": 0.176, "unit": "nM"}, {"measurement": "IC50", "setting": "[2]; [7]", "value": 1420, "unit": "nM"}]}
{"smiles": "C[C@@H]1[C@@H](C)CCC[C@@](O)([C@@H]2CCN(C)C2=O)[C@@H]2CC[C@H]2CN2C[C@@]3(CCCc4cc(Cl)ccc43)COc3ccc(cc32)C(=O)NS1(=O)=O", "note": "[Example 100202, (1S,3′R,6′R,7′S,11′S,12′R)-6-chloro-7′-hydroxy-11′,12′-dimethyl-7′-((3S)-1-methyl-2-oxo-3-pyrrolidinyl)-3,4-dihydro-2H,15′H-spiro[naphthalene-1,22′-[20]oxa[13]thia[1,14]diazatetracyclo [14.7.2.0~3,6~.0~19,24~]pentacosa[16,18,24]trien]-15′-one 13′,13′-dioxide]", "values": [{"measurement": "IC50", "setting": "[1]; [5]", "value": 0.352, "unit": "nM"}, {"measurement": "IC50", "setting": "[2]; [6]", "value": 928, "unit": "nM"}]}
{"smiles": "C[C@@H]1[C@@H](C)CCC[C@@](O)(CC(=O)N2CCOC2=O)[C@@H]2CC[C@H]2CN2C[C@@]3(CCCc4cc(Cl)ccc43)COc3ccc(cc32)C(=O)NS1(=O)=O", "note": "(stereo in doubt) [Example 100154, (1S,3′R,6′R,7′R,11′S,12′R)-6-chloro-7′-hydroxy-11′,12′-dimethyl-7′-(2-oxo-2-(2-oxo-1,3-oxazolidin-3-yl)ethyl)-3,4-dihydro-2H,15′H-spiro[naphthalene-1,22′-[20]oxa[13]thia[1,14]diazatetracyclo [14.7.2.0~3,6~.0~19,24~]pentacosa[16,18,24]rien]-15′-one 13′,13′-dioxide]", "values": [{"measurement": "IC50", "setting": "[1]; [5]", "value": 1.72, "unit": "nM"}, {"measurement": "IC50", "setting": "[2]; [6]", "value": 1070, "unit": "nM"}]}
